Patent US12041933B1, “N-(pyrimidin-2-ylcarbamothioyl) benzamide as an eco-friendly insecticidal agent against Spodoptera littoralis (BOISD.)” (KING FAISAL UNIVERSITY, priority 2023, dated 2024)
Values after ≈ are worked out from the molar mass of the structure shown. Like-named read-outs stand apart in the source and are kept apart here.

Test system: cotton leafworm, S. littoralis
Assay: Insecticidal bioassay screening (castor leaf dip), second and fourth instar larvae, laboratory strain
Type: in vivo
Conditions: for Toxicity index %: 72 hrs, Diflubenzuron's LC50/compound's LC50 × 100; for LC50: Spodoptera littoralis, foliar
Experimental: Five concentrations (200, 100, 50, 25, 12.5 ppm) were designed for this synthetic compound and the reference Diflubenzuron compound as the dynamic ingredients based on mg/L via diluting the commercial formulation.
In this experiment, castor leaves are immersed in each of the previously prepared concentrations of the components for 10 seconds and then left to dry for 60 minutes. Larvae of the second and fourth instars of each checked strain are prepared with treated leaves in gauze-covered glass containers for 72 hrs. An untreated control is made in which leaves are dipped in triton x-100 and distilled water only. Then the preserved leaves were removed & fresh, untreated leaves were provided for 72 hours. Three replicates (10 larvae each) were checked for each concentration. Daily inspection was carried out for all treatments and mortality percentages were recorded 3 days (72 hours) after treatment. The average mortality percentage was corrected employing Abbott's formula. The corrected mortality rate for each of the previously synthesized compounds is statistically calculated according to Finney (1970). Through this rate, the corresponding concentration test lines (LDP lines) are assessed.

[1] = 72 h, read-out: LC50 (mg/L) at 95%, 2nd instar larvae, after 72 hrs of treatment
[2] = 72 h, read-out: LC50 (mg/L) at 95%, 4th instar larvae, after 72 hrs of treatment
[3] = against Spodoptera littoralis under laboratory conditions, instar not stated

## O=C(NC(=O)c1c(F)cccc1F)Nc1ccc(Cl)cc1 [Diflubenzuron, reference compound]
2nd instar larvae
  Toxicity index %: 100%
4th instar larvae
  Toxicity index %: 100%
[1]
  LC50: 45.2 mg/L (≈ 145 µM)
[2]
  LC50: 144 mg/L (≈ 464 µM)
[3]
  LC50: 45.2 mg/L (≈ 145 µM)

## O=C(NC(=S)Nc1ncccn1)c1ccccc1 [Compound 3, N-(Pyrimidin-2-ylcarbamothioyl) benzamide]
2nd instar larvae
  Toxicity index %: 16.7%
4th instar larvae
  Toxicity index %: 22.8%
72 h, 4th instars of larvae, after 72 hours of treatment
  LC50: ~631 mg/L (≈ 2440 µM)
[1]
  LC50: ~96.8 mg/L (≈ 375 µM)
[2]
  LC50: 631 mg/L (≈ 2440 µM)
[3]
  LC50: 96.8 mg/L (≈ 375 µM)
